Source: publication PMC9705864, “SCO6992, a Protein with β-Glucuronidase Activity, Complements a Mutation at the absR Locus and Promotes Antibiotic Biosynthesis in Streptomyces coelicolor” (Journal of Microbiology and Biotechnology, 2021)

Legend:
[1] = molecular target: T1, MBP-SCO6992 (rSCO6992; ORF-1; absR1) (Streptomyces coelicolor, UniProt Q7AKD9); test: native PAGE zymogram with Fast Garnet; type: biochemical; details: 0.2 M sodium acetate pH 5.2
T1 construct: N-terminal MBP fusion (pMAL-c2x) kept, about 82 kDa; E. coli JM109
T1 sequence (Q7AKD9 1-359): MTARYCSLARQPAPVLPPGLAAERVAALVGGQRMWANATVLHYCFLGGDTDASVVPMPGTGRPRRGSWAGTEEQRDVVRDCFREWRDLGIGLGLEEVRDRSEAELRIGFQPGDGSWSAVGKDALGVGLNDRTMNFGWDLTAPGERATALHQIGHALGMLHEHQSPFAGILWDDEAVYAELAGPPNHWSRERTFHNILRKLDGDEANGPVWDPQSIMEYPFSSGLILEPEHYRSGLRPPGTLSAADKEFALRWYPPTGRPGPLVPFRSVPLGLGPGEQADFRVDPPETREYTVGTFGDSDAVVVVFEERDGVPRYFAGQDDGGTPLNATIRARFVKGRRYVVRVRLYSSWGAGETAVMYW

[2] = molecular target: T1, MBP-SCO6992 (rSCO6992; ORF-1; absR1); test: p-nitrophenol release, absorbance at […] nm; type: biochemical; details: 1.67 mM substrate, 83 mM acetate pH 4.5, 37°C, 1 h; without added Zn2+

| Structure (SMILES) | native PAGE zymogram with Fast Garnet [1] | p-nitrophenol release, absorbance at 415 nm [2] |
| --- | --- | --- |
| COc1ccccc1NC(=O)c1cc2cc(Br)ccc2cc1O[C@@H]1O[C@H](C(=O)O)[C@@H](O)[C@H](O)[C@H]1O [naphthol AS-BI-β-D-glucuronide] | purified MBP-SCO6992 protein had β-glucuronidase activity on an artificial substrate such as AS-BI-β-D-glucuronide |  |
| O=C(O)[C@H]1O[C@@H](Oc2ccc([N+](=O)[O-])cc2)[C@H](O)[C@@H](O)[C@@H]1O [p-nitrophenyl-β-D-glucuronide] |  | when measuring β-glucuronidase activity using p-nitrophenyl-β-D-glucuronide as substrate, a strong activity was detected |
